Assay results from patent US5141962A, “Amine compounds” (Roussel Uclaf, priority 1989, dated 1992).

Experiments:
female mice = experiment: Antagonist effect vis-a-vis the analgesic activity of U-50488, hot plate test with mice; format: in vivo, mouse; conditions: hot plate 56° C., product of Example 1 20 mg/kg SC, U-50488 5 mg/kg SC, combination 5 + 20
kappa opiate receptor [1] = target: T1, kappa opiate receptor (Cavia porcellus, UniProt P41144); experiment: Test for distinction between agonist and antagonist on the kappa opiate receptor (3H diprenorphine, with or without NaCl and GTP); format: binding, guinea pig; conditions: for IC50: guinea pig cerebellum membranes, 0.3 nM 3H diprenorphine
T1 construct: Membrane samples prepared from the cerebellum of guinea pigs; from tissue; host or cells: guinea pig cerebellum membranes

kappa opiate receptor [2] = target: T1, kappa opiate receptor; experiment: Test of the bonding to the kappa opiate receptor in vitro (3H ethylketocyclazocine); format: binding, guinea pig
Experimental: a) Test of the bonding to the kappa opiate receptor in vitro
Membrane samples prepared from the cerebellum of guinea pigs preserved at -30° C. (optionally for about 30 days) were used.
These samples were suspended in pH 7.7 Tris buffer. Fractions of 2 ml were allocated into hemolysis tubes and 1 nM of 3H ethylketocyclazocine and the product to be studied were added. The product was first tested in triplicate at 5×10^-6 M. When the tested product displaced more than 50% of the radioactivity bonded specifically to the receptor, it was tested again according to a range of 7 doses to determine the dose which inhibited 50% of the radioactivity bonded specifically to the receptor. Thus, the 50% inhibiting concentration was determined.
The non-specific bonding was determined by the addition of product known under the name U-50 488 H (Lahti et al. 1982, Life Sci. Vol. 31, p. 2257) at 10^-5 M in triplicate. Incubation took place at 25° C. for 40 minutes, followed by returning to the water bath at 0° C. for 5 minutes, then vacuum filtering, rinsing with pH 7.7 Tris buffer, and the radioactivity was counted in the presence of a Triton scintillator. The result was expressed directly as the 50% inhibiting concentration (IC50), that is to say as the concentration of studied product, expressed in nM, necessary to displace 50% of the radioactivity specifically bonded to the studied receptor.

mu opiate receptor = target: T2, mu opiate receptor (Rattus norvegicus, UniProt P33535); experiment: Test of bonding to the mu opiate receptor in vitro (3H DAGO); format: binding; conditions: rat brain membranes, 1 nM 3H DAGO, 25° C. 40 minutes, pH 7.7 Tris buffer; read-out: IC50, displacement of 3H DAGO from mu opiate receptor
T2 construct: from the brains of rats were used; from tissue; host or cells: rat brain membranes

dopamine receptor = target: T3, dopamine receptor (Rattus norvegicus, UniProt P61169); experiment: Test of bonding to the dopamine receptor in vitro (3H spiroperidol); format: binding; conditions: rat striated bodies membranes, 0.15 nM 3H spiroperidol, pH 7.25 Krebs Tris buffer; read-out: IC50, displacement of 3H spiroperidol from dopamine receptor
T3 construct: prepared from the striated bodies of rats were used; from tissue; host or cells: rat striatum membranes
Experimental: (optionally for about 30 days) and prepared from the striated bodies of rats were used. The samples were suspended in pH 7.25 Krebs Tris buffer. […] The product was first tested at 5×10^-6 M, in triplicate. […] Incubation took place at 27° C. for 20 minutes, followed by returning to the water bath at 0° C. for 5 minutes, then vacuum filtering, rinsing with pH 7.7 Tris buffer, and the radioactivity was counted in the presence of a Triton scintillator.

male rats = experiment: Antagonist effect vis-a-vis the diuretic activity of U-50488, action on diuresis; format: in vivo, rat; conditions: male rats fasted 16 h; product of Example 1 20 mg/kg SC, U-50488 5 mg/kg, combination 5 + 20 mg/kg; urine collected for one hour

T1 sequence (P41144 whole entry): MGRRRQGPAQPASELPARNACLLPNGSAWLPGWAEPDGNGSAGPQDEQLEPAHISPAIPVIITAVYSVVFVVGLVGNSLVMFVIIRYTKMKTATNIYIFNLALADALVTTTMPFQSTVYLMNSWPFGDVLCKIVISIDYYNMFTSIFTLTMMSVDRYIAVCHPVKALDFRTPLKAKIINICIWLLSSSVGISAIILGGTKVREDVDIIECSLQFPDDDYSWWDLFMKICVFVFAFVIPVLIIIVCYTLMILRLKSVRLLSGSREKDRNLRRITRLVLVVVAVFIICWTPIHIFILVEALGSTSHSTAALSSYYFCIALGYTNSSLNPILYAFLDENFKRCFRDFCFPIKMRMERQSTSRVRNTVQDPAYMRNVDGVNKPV
T3 sequence (P61169 whole entry): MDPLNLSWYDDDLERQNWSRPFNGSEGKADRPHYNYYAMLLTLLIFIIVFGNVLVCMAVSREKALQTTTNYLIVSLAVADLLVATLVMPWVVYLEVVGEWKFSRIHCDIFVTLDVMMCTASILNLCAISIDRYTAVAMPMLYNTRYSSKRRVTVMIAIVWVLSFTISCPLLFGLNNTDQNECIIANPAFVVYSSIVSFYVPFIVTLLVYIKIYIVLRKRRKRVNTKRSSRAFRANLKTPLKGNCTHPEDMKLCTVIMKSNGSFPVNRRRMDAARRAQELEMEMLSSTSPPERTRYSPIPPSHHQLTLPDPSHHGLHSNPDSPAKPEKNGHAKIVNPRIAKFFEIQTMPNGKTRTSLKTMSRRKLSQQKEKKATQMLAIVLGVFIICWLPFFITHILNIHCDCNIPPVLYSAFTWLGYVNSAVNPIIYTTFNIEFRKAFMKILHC
T2 sequence (P33535 whole entry): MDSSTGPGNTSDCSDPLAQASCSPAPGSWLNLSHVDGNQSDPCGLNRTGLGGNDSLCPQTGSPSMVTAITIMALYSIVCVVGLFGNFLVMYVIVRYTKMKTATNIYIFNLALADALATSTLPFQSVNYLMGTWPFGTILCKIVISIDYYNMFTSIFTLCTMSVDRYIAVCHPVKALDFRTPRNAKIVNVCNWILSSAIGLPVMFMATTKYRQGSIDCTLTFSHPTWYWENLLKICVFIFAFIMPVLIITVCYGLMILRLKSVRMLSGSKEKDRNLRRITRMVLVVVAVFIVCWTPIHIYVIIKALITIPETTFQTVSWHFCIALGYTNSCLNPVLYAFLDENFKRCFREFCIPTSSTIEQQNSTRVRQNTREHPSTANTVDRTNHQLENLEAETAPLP

For `CCCCCN(CCc1ccccc1)CCc1cccc(O)c1` [Product of example 1, N-pentyl-N-phenethyl-3-hydroxyphenethylamine], the “Reaction time, m ± esm, 30 mn” value (female mice; 30 minutes after injection) was 4.7 ± 0.6 s, the “Reaction time, m ± esm, 0 mn” value (female mice; initial time (0 mn)) was 5.1 ± 0.1 s and the “Agonist or antagonist character on the kappa receptor” value (kappa opiate receptor [1]; conclusion from IC50 with and without NaCl/GTP) was “antagonist product of the kappa receptor”. The IC50 (kappa opiate receptor [1]; NaCl 100 mM, GTP 50 uM, read-out: IC50 in the presence of GTP and NaCl) was 0.135 µM, the IC50 (kappa opiate receptor [1]; without NaCl and GTP, read-out: IC50 in the absence of GTP and NaCl) was 0.043 µM and the “Affinity for kappa, mu and dopamine receptors (conclusion)” value (kappa opiate receptor [2]; conclusion from the kappa, mu and dopamine bonding tests) was “only has an affinity for the kappa opiate receptor”. The IC50 (kappa opiate receptor [2]; guinea pig cerebellum membranes, 1 nM 3H ethylketocyclazocine, 25° C. 40 minutes, pH 7.7 Tris buffer, read-out: IC50, displacement of 3H ethylketocyclazocine from kappa opiate receptor) was 0.057 µM, the IC50 (mu opiate receptor) was 0.84 µM and the IC50 (dopamine receptor) was 10.6 µM. For the same compound, the “Volume of urine excreted in 1 hour, m ± esm” value (male rats) was 0.0067 ± 0.0002 L/kg.
